ChEMBL document CHEMBL4811258, “Potent Antimalarials with Development Potential Identified by Structure-Guided Computational Optimization of a Pyrrole-Based Dihydroorotate Dehydrogenase Inhibitor Series” (J Med Chem, 2021)

Key:
[1] = system: Plasmodium falciparum; test: microbe, parasite or virus in culture; conditions: 3D7, 72 h
[2] = Inhibition of Plasmodium falciparum DHODH expressed in Escherichia coli BL21-DE3 using L-dihydroorotate as substrate by steady-state DCIP method
[3] = system: Plasmodium falciparum

| SMILES | EC50 [1] [nM] | IC50 [2] [nM] | EC50 [3] [nM] |
| --- | --- | --- | --- |
| Cc1c(-c2n[nH]c3nc(C(F)(F)F)ccc23)c[nH]c1C(=O)NCC(F)(F)F | > 10000 | 3900 |  |
| COC1COCC1NC(=O)c1[nH]cc(Cc2ccc(C(F)(F)F)nc2)c1C (stereo not drawn) | 1100 | 17000 |  |
| Cc1c(-c2n[nH]c3nc(C(F)(F)F)ccc23)c[nH]c1C(=O)N1CC(F)(F)C1 | > 10000 | 2100 |  |
| COC(=O)c1c(Cc2ccc(C(F)(F)F)nc2)c[nH]c1C(=O)NC1CC1 | 1400 | 6400 |  |
| CNC(=O)[C@@H](C)NC(=O)c1[nH]cc(Cc2ccc(C(F)(F)F)nc2)c1C | 8900 | 39000 |  |
| Cc1c(Cc2ccc(C(F)(F)F)nc2)c[nH]c1C(=O)NC1COC1 | 74 | 110 |  |
| Cc1c(Cc2ccc(S(=O)(=O)N(C)C)cc2)c[nH]c1C(=O)NC1CC1 | 700 | 1500 |  |
| CNC(=O)c1c(Cc2ccc(C(F)(F)F)nc2)c[nH]c1C(=O)NC1CC1 | 3400 | 16000 |  |
| Cc1c(-c2c[nH]c3cc(C(F)(F)F)ccc23)c[nH]c1C(=O)NCC(F)(F)F | 1200 | 18000 |  |
| Cc1c(Cc2ccc(C(F)(F)F)nc2)c[nH]c1C(=O)N[C@H](C)C(N)=O | > 10000 | > 100000 |  |
| Cc1c(-c2c[nH]c3nc(C(F)(F)F)ccc23)c[nH]c1C(=O)NCC(F)(F)F | 50 | 500 |  |
| NC(=O)c1c(Cc2ccc(C(F)(F)F)nc2)c[nH]c1C(=O)NC1CC1 | 2100 | 4900 |  |
| Cc1c(-c2c[nH]c3cc(C(F)(F)F)ccc23)c[nH]c1C(=O)NC1CC1 | 190 | 1600 |  |
| Cc1c(-c2n[nH]c3cc(C(F)(F)F)ccc23)c[nH]c1C(=O)NCC(F)(F)F | 610 | 22000 |  |
| Cc1c(Cc2ccc(C(F)(F)F)nc2)c[nH]c1C(=O)NCc1cc[nH]n1 | 1400 | 17000 |  |
| Cc1c(Cc2ccc(C(F)(F)F)nc2)c[nH]c1C(=O)N[C@H](C)CO | 2100 | 2700 |  |
| Cc1c(-c2n[nH]c3cc(C(F)(F)F)ccc23)c[nH]c1C(=O)NC1CC1 | 250 | 4100 |  |
| Cc1c(Cc2ccc(C(F)(F)F)nc2)c[nH]c1C(=O)NC1COCC1O (stereo not drawn) | 6400 | 61000 |  |
| Cc1c(-c2c[nH]c3cc(C(F)(F)F)ccc23)c[nH]c1C(=O)N1CC(F)(F)C1 | 620 | 16000 |  |
| Cc1c(-c2c[nH]c3nc(C(F)(F)F)ccc23)c[nH]c1C(=O)N1CC(F)(F)C1 | 32 | 110 |  |
| Cc1c(-c2n[nH]c3cc(C(F)(F)F)ccc23)c[nH]c1C(=O)N1CC(F)(F)C1 | 480 | 3600 |  |
| Cc1c(Cc2ccc(C(F)(F)F)nc2C#N)c[nH]c1C(=O)NC(C)c1nc[nH]n1 (racemic) | 2300 | 1900 |  |

| SMILES | EC50 [1] [nM] | IC50 [2] [nM] | EC50 [3] [nM] |
| --- | --- | --- | --- |
| Cc1c(Cc2ccc(C(F)(F)F)nc2)c[nH]c1C(=O)NC(C)c1cc[nH]n1 (racemic) | 43 | 270 |  |
| Cc1c(Cc2cccc(F)c2C#N)c[nH]c1C(=O)NC(C)c1nc[nH]n1 (racemic) | 1100 | 480 |  |
| Cc1c(Cc2ccc(C(F)(F)F)nc2)c[nH]c1C(=O)NC(C)c1ncn(C)n1 (racemic) | 13000 | 4000 |  |
| Cc1cc(C(C)NC(=O)c2[nH]cc(C3(c4ccc(C(F)(F)F)nc4)CC3)c2C)n[nH]1 (stereo in doubt; form 1) | 3300 |  |  |
| Cc1c(C2(c3ccc(C(F)(F)F)nc3)CC2)c[nH]c1C(=O)NC(C)c1cn[nH]c1 (stereo in doubt; form 1) |  |  | 1300 |
| Cc1c(C2(c3ccc(C(F)F)nc3)CC2)c[nH]c1C(=O)NC(C)c1nc[nH]n1 (stereo in doubt; form 1) |  | 150 | 180 |
| Cc1c(C2(c3ccc(C(F)(F)F)cc3F)CC2)c[nH]c1C(=O)NC(C)c1nc[nH]n1 (stereo in doubt; form 1) |  | 1200 | 12000 |
| Cc1c(C(=O)NC(C)c2nc[nH]n2)[nH]c(Cl)c1Cc1ccc(C(F)(F)F)nc1 (stereo in doubt; form 1) |  | > 100000 | > 10000 |
| Cc1cc(C(C)NC(=O)c2[nH]c(C)c(Cc3ccc(C(F)(F)F)nc3)c2C#N)no1 (stereo in doubt; form 1) |  | 3200 | 1800 |
| Cc1c(-c2c[nH]c3nc(C(F)(F)F)ccc23)c[nH]c1C(=O)NC(C)c1nc[nH]n1 (stereo in doubt; form 1) |  | 510 | 53 |
| Cc1cc(C(C)NC(=O)c2[nH]cc(-c3n[nH]c4cc(C(F)(F)F)ccc34)c2C)no1 (stereo in doubt; form 1) |  | > 100000 | > 10000 |
| Cc1[nH]c(C(=O)N[C@H](C)c2cn[nH]c2)c(C#N)c1Cc1ccc(C(F)(F)F)nc1 (stereo in doubt; form 1) |  | 42000 | > 1000 |
| Cc1c(C2(c3ccc(C(F)(F)F)nc3)CC2)c[nH]c1C(=O)NC(C)c1cc(C#N)[nH]n1 (stereo in doubt; form 1) | 1700 |  |  |
| Cc1c(Cc2ccc(F)c(F)c2)c[nH]c1C(=O)NC(C)c1nc[nH]n1 (stereo in doubt; form 1) |  | 400 | 720 |
| CNC(=O)c1cc(C(C)NC(=O)c2[nH]cc(C3(c4ccc(C(F)(F)F)nc4)CC3)c2C)n[nH]1 (stereo in doubt; form 1) |  | 390 | 520 |
| Cc1cc(C(C)NC(=O)c2[nH]cc(-c3c[nH]c4cc(C(F)(F)F)ccc34)c2C)no1 (stereo in doubt; form 1) |  | > 100000 | > 1000 |
| Cc1[nH]c(C(=O)NC(C)c2cnn(C)c2)c(C)c1Cc1ccc(C(F)(F)F)nc1 (stereo in doubt; form 1) |  | > 30000 | > 10000 |
| CNC(=O)c1cc(C(C)NC(=O)c2[nH]cc(Cc3ccc(C(F)(F)F)nc3)c2C)n[nH]1 (stereo in doubt; form 1) |  | 1000 | 170 |
| Cc1c(C2(c3ccc(C(F)(F)F)nc3)CC2)c[nH]c1C(=O)NC(C)c1cc(C(N)=O)[nH]n1 (stereo in doubt; form 2) |  | 57000 | 9.4 |
| Cc1c(C2(c3ccc(C(F)(F)F)nc3)CC2)c[nH]c1C(=O)NC(C)c1cn[nH]c1 (stereo in doubt; form 2) |  |  | 1.2 |
| Cc1[nH]c(C(=O)NC(C)c2nc[nH]n2)c(C)c1Cc1ccc(C(F)(F)F)nc1 (stereo in doubt; form 2) |  | 43000 | 750 |
| Cc1c(C2(c3ccc(C(F)F)nc3)CC2)c[nH]c1C(=O)NC(C)c1nc[nH]n1 (stereo in doubt; form 2) |  | > 30000 | > 20000 |

| SMILES | EC50 [1] [nM] | IC50 [2] [nM] | EC50 [3] [nM] |
| --- | --- | --- | --- |
| Cc1cc(C(C)NC(=O)c2[nH]c(C)c(Cc3ccc(C(F)(F)F)nc3)c2C)no1 (stereo in doubt; form 2) |  | 53000 | > 1000 |
| Cc1c(C2(c3ccc(C(F)(F)F)cc3F)CC2)c[nH]c1C(=O)NC(C)c1nc[nH]n1 (stereo in doubt; form 2) |  | > 100000 | 410 |
| Cc1c(Cc2ccc(C(F)(F)F)nc2)c[nH]c1C(=O)NC(C)c1cc(C(N)=O)[nH]n1 (stereo in doubt; form 2) |  | 33000 | 16000 |
| Cc1c(Cc2ccc(C(F)(F)F)nc2)c[nH]c1C(=O)NC(C)c1cn[nH]c1 (stereo in doubt; form 2) |  | 6400 | 370 |
| Cc1c(Cc2ccc(C(F)(F)F)nc2)c[nH]c1C(=O)NC(C)c1cnn(C)c1 (stereo in doubt; form 2) |  |  | 350 |
| Cc1c(Cc2ccc(F)c3ccncc23)c[nH]c1C(=O)NC(C)c1nc[nH]n1 (stereo in doubt; form 2) |  | 23000 | 2300 |
| Cc1c(C2(c3cccc(C(F)(F)F)c3)CC2)c[nH]c1C(=O)NC(C)c1nc[nH]n1 (stereo in doubt; form 2) |  | > 30000 | 2800 |
| Cc1c(Cc2ccc(C(F)(F)F)nc2)c[nH]c1C(=O)NC(C)c1nc[nH]n1 (stereo in doubt; form 2) |  | > 100000 | 16000 |
| Cc1cc(C(C)NC(=O)c2[nH]cc(C3(c4ccc(C(F)(F)F)nc4)CC3)c2C)no1 (stereo in doubt; form 2) |  | 80000 | 1.2 |
| Cc1c(C2(c3ccc(C(F)(F)F)c(F)c3)CC2)c[nH]c1C(=O)NC(C)c1nc[nH]n1 (stereo in doubt; form 2) |  | 34000 | 5400 |
| Cc1c(-c2c[nH]c3nc(C(F)(F)F)ccc23)c[nH]c1C(=O)NC(C)c1nc[nH]n1 (stereo in doubt; form 2) |  | 25000 | 2000 |
| Cc1[nH]c(C(=O)NC(C)c2cn[nH]c2)c(C)c1Cc1ccc(C(F)(F)F)nc1 (stereo in doubt; form 2) |  | 11000 | 190 |
| Cc1cc(C(C)NC(=O)c2[nH]cc(Cc3ccc(C(F)(F)F)cc3)c2C)no1 (stereo in doubt; form 2) |  | 48000 | 6200 |
| Cc1cc(C(C)NC(=O)c2[nH]cc(Cc3ccc(C(F)(F)F)nc3)c2C)no1 (stereo in doubt; form 2) |  |  | 450 |
| Cc1cc(C(C)NC(=O)c2[nH]cc(Cc3ccc(C(F)(F)F)nc3)c2C)n[nH]1 (stereo in doubt; form 2) |  | 68000 | > 10000 |
| Cc1c(Cc2ccc(C(F)(F)F)cc2F)c[nH]c1C(=O)NC(C)c1nc[nH]n1 (stereo in doubt; form 2) |  | 36000 | 5800 |
| Cc1c(Cc2ccc(C(F)(F)F)nc2)c[nH]c1C(=O)NC(C)c1cc(C#N)[nH]n1 (stereo in doubt; form 2) |  | 54000 | 6100 |
| Cc1c(Cc2ccc(F)c(F)c2)c[nH]c1C(=O)NC(C)c1nc[nH]n1 (stereo in doubt; form 2) |  | > 100000 | > 10000 |
| CNC(=O)c1cc(C(C)NC(=O)c2[nH]cc(C3(c4ccc(C(F)(F)F)nc4)CC3)c2C)n[nH]1 (stereo in doubt; form 2) |  | 55000 | 44 |
| CNC(=O)c1cc(C(C)NC(=O)c2[nH]cc(Cc3ccc(C(F)(F)F)nc3)c2C)n[nH]1 (stereo in doubt; form 2) |  | 89000 | 4800 |
| Cc1c(C(=O)NC(C)c2nc[nH]n2)[nH]c(Cl)c1Cc1ccc(C(F)(F)F)nc1 (stereo in doubt; form 3) |  | 64000 |  |
